This is an account of results in BindingDB's records for patent US11903936 (University of Texas, 2024).

In general, EC50 refers to the concentration that produces a half-maximal response.

The target of the assay is T1, Dihydroorotate dehydrogenase (quinone), mitochondrial (Plasmodium falciparum (isolate 3D7), UniProt Q08210).
T1 sequence (Q08210 whole entry): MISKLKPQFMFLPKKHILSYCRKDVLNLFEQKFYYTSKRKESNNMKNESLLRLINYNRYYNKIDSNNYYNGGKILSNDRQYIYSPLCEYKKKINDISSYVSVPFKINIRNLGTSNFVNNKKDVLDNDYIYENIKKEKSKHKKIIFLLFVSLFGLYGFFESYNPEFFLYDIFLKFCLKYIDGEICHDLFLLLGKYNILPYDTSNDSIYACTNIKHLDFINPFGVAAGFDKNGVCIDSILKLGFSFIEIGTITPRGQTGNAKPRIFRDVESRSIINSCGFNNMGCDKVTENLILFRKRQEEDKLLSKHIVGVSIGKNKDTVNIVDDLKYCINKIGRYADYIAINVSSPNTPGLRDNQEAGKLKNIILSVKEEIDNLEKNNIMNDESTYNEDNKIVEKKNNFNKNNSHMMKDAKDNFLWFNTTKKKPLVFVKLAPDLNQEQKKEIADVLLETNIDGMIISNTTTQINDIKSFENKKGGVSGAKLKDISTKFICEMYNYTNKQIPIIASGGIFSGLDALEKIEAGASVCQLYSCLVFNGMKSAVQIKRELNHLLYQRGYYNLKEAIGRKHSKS
Nature of the assay: P. falciparum growth and inhibition assays.

Description: DSMO inhibitor stocks (as above) were diluted in DMSO using a 2 or 3-fold dilution series and then dispensed into media at 10× the final concentrations. A second step into media led to final inhibitor concentrations ranging from 0.001-30 μM and a final DMSO concentration of 0.2%. […] Data were collected using triplicate technical replicates and where indicated additional biological replicates were collected (the number of biological replicates is provided in parenthesis).

In turn, `Cc1c(Cc2ccc(C(F)(F)F)c(F)c2)c[nH]c1C(=O)NC(C)c1nc[nH]n1` (stereo unspecified) [US11903936, Compound 5] displayed a concentration giving a half-maximal response (EC50) of 0.039 µM. That is a double-digit nanomolar value.
